Data as given in patent US7109216B2 (priority 2001, dated 2006).
Where two headings read alike, the source gives them in different places.

What was measured:
[1] = target: T1, human cannabinoid CB1 receptor (Homo sapiens, UniProt P21554); test: biochemical; format: binding; set-up: expressed in transfected cells; host or cells: Chinese hamster ovary (CHO) cells, membrane preparation; settings: [3H]CP-55,940 radioligand, CHO cell membranes stably transfected with human CB1
Protocol: After incubation of a freshly prepared cell membrane preparation with the [^3H]-ligand, with or without addition of compounds of the invention, separation of bound and free ligand was performed by filtration over glassfiber filters. Radioactivity on the filter was measured by liquid scintillation counting.

[2] = target: T1, human cannabinoid CB1 receptor; test: Cannabinoid CB1 antagonistic activity, forskolin-induced cAMP accumulation in CHO cells; format: cell-based; set-up: expressed in transfected cells; host or cells: CHO cells
Protocol: The cannabinoid CB1 antagonistic activity of compounds of the invention was determined by functional studies using CHO cells in which human cannabinoid CB1 receptors were stably expressed. Adenylyl cyclase was stimulated using forskolin and measured by quantifying the amount of accumulated cyclic AMP. Concomitant activation of CB1 receptors by CB1 receptor agonists (e.g. CP-55,940 or (R)-WIN-55,212–2) can attenuate the forskolin-induced accumulation of cAMP in a concentration-dependent manner. This CB1 receptor-mediated response can be antagonized by CB1 receptor antagonists such as the compounds of the invention.

[3] = antagonism of CB1 agonist (e.g. CP-55,940 or (R)-WIN-55,212-2) effect on forskolin-induced cAMP accumulation, CHO cells expressing human CB1
[4] = antagonism of CB1 agonist (e.g. CP-55,940 or (R)-WIN-55,212-2) effect on forskolin-induced cAMP accumulation, CHO cells expressing human CB1, read-out: hCB1 pA2 (converted)

T1 sequence (P21554 whole entry): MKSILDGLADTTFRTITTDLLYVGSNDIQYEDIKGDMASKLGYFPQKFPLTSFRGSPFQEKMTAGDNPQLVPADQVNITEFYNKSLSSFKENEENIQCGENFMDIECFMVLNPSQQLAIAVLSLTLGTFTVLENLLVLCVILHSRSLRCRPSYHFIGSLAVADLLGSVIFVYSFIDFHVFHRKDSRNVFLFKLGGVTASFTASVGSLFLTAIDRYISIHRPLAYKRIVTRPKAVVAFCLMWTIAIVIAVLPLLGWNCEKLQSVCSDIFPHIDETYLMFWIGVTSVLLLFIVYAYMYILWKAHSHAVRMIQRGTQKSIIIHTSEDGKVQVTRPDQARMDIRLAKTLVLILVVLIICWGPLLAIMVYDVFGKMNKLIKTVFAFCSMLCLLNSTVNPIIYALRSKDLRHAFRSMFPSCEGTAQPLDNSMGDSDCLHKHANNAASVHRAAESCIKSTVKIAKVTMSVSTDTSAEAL

| Structure (SMILES) | Ki ([1]; hCB1 pKi) [nM] | hCB1 pA2 [2, 3] | Kb [2, 4] [nM] | Ki ([1]; read-out: hCB1 pKi (converted)) [nM] | Kb [2] [nM] | melting point [°C] |
| --- | --- | --- | --- | --- | --- | --- |
| O=C(NN1CCCCC1)c1cn(-c2ccc(Cl)cc2)c(-c2ccc(Cl)cc2Cl)n1 [Example 1, 1-(4-chlorophenyl)-2-(2,4-dichlorophenyl)-N-(piperidin-1-yl)-1H-imidazole-4-carboxamide] | 12.6 | 8.2 |  |  |  |  |
| O=C(NN1CCCC1)c1cn(-c2ccc(Cl)cc2)c(-c2ccc(Cl)cc2Cl)n1 [Example 2, 1-(4-Chlorophenyl)-2-(2,4-dichlorophenyl)-N-(pyrrolidin-1-yl)-1H-imidazole-4-carboxamide] | 100 |  | 25.1 |  |  |  |
| CC(C)(C)ONC(=O)c1cn(-c2ccc(Cl)cc2)c(-c2ccc(Cl)cc2Cl)n1 [Example 3, N-(t-Butoxy)-1-(4-chlorophenyl)-2-(2,4-dichlorophenyl)-1H-imidazole-4-carboxamide] |  |  |  | 158 | 31.6 |  |
| O=C(NC1CCCCC1)c1cn(-c2ccc(Cl)cc2)c(-c2ccc(Cl)cc2Cl)n1 [Example 5, 1-(4-Chlorophenyl)-N-cyclohexyl-2-(2,4-dichlorophenyl)-1H-imidazole-4-carboxamide] | 79.4 |  | 7.94 |  |  |  |
| CN(Cc1ccccc1)C(=O)c1cn(-c2ccc(Cl)cc2)c(-c2ccc(Cl)cc2Cl)n1 [Example 6, N-(Benzyl)-1-(4-chlorophenyl)-2-(2,4-dichlorophenyl)-N-methyl-1H-imidazole-4-carboxamide] | 63.1 |  | 50.1 |  |  |  |
| Cc1c(C(=O)NN2CCCCC2)nc(-c2ccc(Cl)cc2)n1-c1ccc(Cl)cc1Cl [Example 10, 2-(4-chlorophenyl)-1-(2,4-dichlorophenyl)-5-methyl-N-(piperidin-1-yl)-1H-imidazole-4-carboxamide] | 316 |  | 7.94 |  |  |  |
| Cc1c(C(=O)NN2CCCCC2)nc(-c2ccc(Cl)cc2Cl)n1-c1ccc(Cl)cc1 [Example 12, 1-(4-Chlorophenyl)-2-(2,4-dichlorophenyl)-5-methyl-N-(piperidin-1-yl)-1H-imidazole-4-carboxamide] | 12.6 |  | 1.26 |  |  |  |
| Cc1c(C(=O)NOC(C)(C)C)nc(-c2ccc(Cl)cc2Cl)n1-c1ccc(Cl)cc1 [Example 13, N-(t-Butoxy)-2-(2,4-dichlorophenyl)-1-(4-chlorophenyl)-5-methyl-1H-imidazole-4-carboxamide] | 79.4 |  | 3.16 |  |  |  |
| CCc1c(C(=O)NOC(C)(C)C)nc(-c2ccc(Cl)cc2Cl)n1-c1ccc(Cl)cc1 [Example 14, N-(t-Butoxy)-1-(4-chlorophenyl)-2-(2,4-dichlorophenyl)-5-ethyl-1H-imidazole-4-carboxamide] | 100 |  | 0.126 |  |  |  |
| CCc1c(C(=O)NN2CCCCC2)nc(-c2ccc(Cl)cc2Cl)n1-c1ccc(Cl)cc1 [Example 15, 1-(4-Chlorophenyl)-2-(2,4-dichlorophenyl)-5-ethyl-N-(piperidin-1-yl)-1H-imidazole-4-carboxamide] | 10 |  | 0.501 |  |  |  |
| Cc1c(C(=O)NOC(C)(C)C)nc(-c2ccc(Cl)cc2Cl)n1-c1ccc(Br)cc1 [Example 16, 1-(4-Bromophenyl)-N-(t-butoxy)-2-(2,4-dichlorophenyl)-5-methyl-1H-imidazole-4-carboxamide] |  |  |  |  | 15.8 |  |
| Cc1c(C(=O)NN2CCCCC2)nc(-c2ccc(Cl)cc2Cl)n1-c1ccc(Br)cc1 [Example 17, 1-(4-Bromophenyl)-2-(2,4-dichlorophenyl)-5-methyl-N-(piperidin-1-yl)-1H-imidazole-4-carboxamide] | 50.1 |  | 1.58 |  |  | > 204 |
| CCc1c(C(=O)NN2CCCCC2)nc(-c2ccc(Cl)cc2Cl)n1-c1ccc(Br)cc1 [Example 19, 1-(4-Bromophenyl)-2-(2,4-dichlorophenyl)-5-ethyl-N-(piperidin-1-yl)-1H-imidazole-4-carboxamide] | 31.6 |  | 1.26 |  |  | > 140 |
| CCc1c(C(=O)NC2CCCCC2)nc(-c2ccc(Cl)cc2Cl)n1-c1ccc(Br)cc1 [Example 20, 1-(4-Bromophenyl)-N-cyclohexyl-2-(2,4-dichlorophenyl)-5-ethyl-1H-imidazole-4-carboxamide] | 100 |  | < 1 |  |  | > 135 |
| CCCCCNC(=O)c1nc(-c2ccc(Cl)cc2Cl)n(-c2ccc(Br)cc2)c1CC [Example 21, 1-(4-Bromophenyl)-2-(2,4-dichlorophenyl)-5-ethyl-N-(n-pentyl)-1H-imidazole-4-carboxamide] | 31.6 |  | < 1 |  |  |  |
| O=C(NN1CCCCC1)c1cn(-c2ccc(Br)cc2)c(-c2ccc(Cl)cc2Cl)n1 [Example 22, 1-(4-bromophenyl)-2-(2,4-dichlorophenyl)-N-(piperidin-1-yl)-1H-imidazole-4-carboxamide] |  |  |  | 398 | 10 |  |
| CC(C)(C)ONC(=O)c1cn(-c2ccc(Br)cc2)c(-c2ccc(Cl)cc2Cl)n1 [Example 23, N-(t-Butoxy)-1-(4-bromophenyl)-2-(2,4-dichlorophenyl)-1H-imidazole-4-carboxamide] |  |  |  | 398 | 1 |  |
| O=C(NN1CCCCCC1)c1cn(-c2ccc(Br)cc2)c(-c2ccc(Cl)cc2Cl)n1 [Example 25, N-(Azepan-1-yl)-1-(4-bromophenyl)-2-(2,4-dichlorophenyl)-1H-imidazole-4-carboxamide] |  |  |  | 126 | 10 | 201 to 204 |
| O=C(NN1CC2CCCC2C1)c1cn(-c2ccc(Cl)cc2)c(-c2ccc(Cl)cc2Cl)n1 (centres unmarked) [Example 26, 1-(4-Chlorophenyl)-2-(2,4-dichlorophenyl)-N-(hexahydrocyclopenta[c]pyrrol-2(1H)-yl)-1H-imidazole-4-carboxamide] | 501 |  | 10 |  |  |  |
| O=C(NCc1ccc(F)cc1)c1cn(-c2ccc(Cl)cc2)c(-c2ccc(Cl)cc2Cl)n1 [Example 27, 1-(4-Chlorophenyl)-2-(2,4-dichlorophenyl)-N-(4-fluorobenzyl)-1H-imidazole-4-carboxamide] | 63.1 |  | 3.98 |  |  |  |
| COc1cc(Cl)ccc1-c1nc(C(=O)NC2CCCCC2)cn1-c1ccc(Cl)cc1 [Example 29, 1-(4-Chlorophenyl)-N-cyclohexyl-2-(2-methoxy-4-chlorophenyl)-1H-imidazole-4-carboxamide] |  |  |  | 398 | 100 | 177 to 179 |
| COc1ccc(-n2cc(C(=O)NC3CCCCC3)nc2-c2ccc(Cl)cc2Cl)cc1 [Example 36, N-Cyclohexyl-2-(2,4-dichlorophenyl)-1-(4-methoxyphenyl)-1H-imidazole-4-carboxamide] | 158 |  | 6.31 |  |  | 175 to 176 |
| O=C(NC1CCCCC1)c1cn(-c2ccc(Cl)cc2)c(-c2ccc(Cl)cc2C(F)(F)F)n1 [Example 38, 1-(4-Chlorophenyl)-N-cyclohexyl-2-(2-trifluoromethyl-4-chlorophenyl)-1H-imidazole-4-carboxamide] |  |  |  | 200 | 20 | 172 |
| O=C(NN1CCCCC1)c1cn(-c2ccc(Cl)cc2)c(-c2ccc(Cl)cc2C(F)(F)F)n1 [Example 39, 1-(4-Chlorophenyl)-N-(piperidin-1-yl)-2-(2-trifluoromethyl-4-chlorophenyl)-1H-imidazole-4-carboxamide] |  |  |  | 316 | 50.1 | 219 |
| Cc1c(C(=O)NN2CCCCC2)nc(-c2ccc(Cl)cc2Cl)n1-c1ccc(C(F)(F)F)cc1 [Example 45, 2-(2,4-dichlorophenyl)-5-methyl-N-(piperidin-1-yl)-1-(4-(trifluoromethyl)phenyl)-1H-imidazole-4-carboxamide] | 15.8 |  | 1.58 |  |  |  |
| Cc1c(C(=O)NN2CCOCC2)nc(-c2ccc(Cl)cc2Cl)n1-c1ccc(Cl)cn1 [Example 52, 1-(5-Chloropyridin-2-yl)-2-(2,4-dichlorophenyl)-5-methyl-N-(4-morpholinyl)-1H-imidazole-4-carboxamide] |  |  |  | 501 | 2.51 |  |
| O=C(NN1CCCCC1)c1nc(-c2ccc(Cl)cc2Cl)n(-c2ccc(Br)cc2)c1Cl [Example 109, 1-(4-bromophenyl)-5-chloro-2-(2,4-dichloro-phenyl)-N-(piperidin-1-yl)-1H-imidazole-4-carboxamide] | 251 |  | 1.58 |  |  |  |
| N#Cc1c(C(=O)NN2CCCCC2)nc(-c2ccc(Cl)cc2Cl)n1-c1ccc(Cl)cc1 [Example 110, 1-(4-chlorophenyl)-5-cyano-2-(2,4-dichlorophenyl)-N-(piperidin-1-yl)-1H-imidazole-4-carboxamide] | 31.6 | 8.6 |  |  |  |  |
| CCc1c(C(=O)NN2CCCCC2)nc(-c2ccccc2Cl)n1-c1ccc(Cl)cn1 [Example 116, 1-(5-chloropyrid-2-yl)-2-(2-chlorophenyl)-5-ethyl-N-(piperidin-1-yl)-1H-imidazole-4-carboxamide] | 12.6 |  |  |  |  | 217 to 219 |
